Consider 18 compounds from patent publication US10689377B2 (Mirati Therapeutics, Inc., priority 2017, dated 2020).

The term IC50 denotes the concentration needed to halve the response being measured.

A value given as a limit tells only on which side of the number the result lay.

Chain of KRas G12C (P01116 1-188 isoform P01116-2 G12C): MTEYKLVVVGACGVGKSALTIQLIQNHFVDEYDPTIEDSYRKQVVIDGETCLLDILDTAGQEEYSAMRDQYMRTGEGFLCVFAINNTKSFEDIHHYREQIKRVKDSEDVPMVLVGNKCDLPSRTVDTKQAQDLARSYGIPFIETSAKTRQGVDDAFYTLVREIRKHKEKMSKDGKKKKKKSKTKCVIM

In the test the target is KRas G12C (Homo sapiens, UniProt P01116, G12C). Description: Cellular inhibition of KRas G12C measured by Phospho-ERK in NCI-H358 cells. To be noted: pERK(Thr202/Tyr204) normalized with GAPDH, NCI-H358 cells, 3 hours; read-out: IC50. The test is classed as cell-based. In short, it runs like this:
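Readout is pERK(Thr202/Tyr204) immunofluorescence normalized to GAPDH, expressed as percent of DMSO control and fitted with a 4-parameter curve for IC50. Attached NCI-H358 cells received compound for 3 hours in 0.5% DMSO, followed by fixation and methanol permeabilization.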
Consider `C=CC(=O)N1CCN(c2nc(OCCCN(C)C)nc3c2CCN(c2cc(O)cc4ccccc24)C3)CC1` [Example 10, 1-(4-(2-(3-(dimethylamino)propoxy)-7-(3-hydroxynaphthalen-1-yl)-5,6,7,8-tetrahydropyrido[3,4-d]pyrimidin-4-yl)piperazin-1-yl)prop-2-en-1-one], for which the IC50 is above 1000 nM.

Take `C=CC(=O)N1CCN(c2nc(OCCN(CC)CC)nc3c2CCN(c2ccccc2C(F)(F)F)C3)CC1CC#N` (stereo not drawn) [Example 284, 2-(1-acryloyl-4-(2-(2-(diethylamino)ethoxy)-7-(2-(trifluoromethyl)phenyl)-5,6,7,8-tetrahydropyrido[3,4-d]pyrimidin-4-yl)piperazin-2-yl)acetonitrile]: the IC50 is 0.1 to 1000 nM. The same measure for `C=CC(=O)N1CCN(c2nc(OC[C@@H]3CCCN3C)nc3c2CCN(c2c(C)c(C)cc4[nH]ccc24)C3)CC1` [Example 457, 1-[4-[7-(5,6-dimethyl-1H-indol-4-yl)-2-[[(2S)-1-methylpyrrolidin-2-yl]methoxy]-6,8-dihydro-5H-pyrido[3,4-d]pyrimidin-4-yl]piperazin-1-yl]prop-2-en-1-one]: 0.1 to 1000 nM; for `CN1CCC[C@H]1COc1nc2c(c(N3CCN(C(=O)C#CCO)[C@@H](CC#N)C3)n1)CCN(c1cccc3cccc(Cl)c13)C2` [Example 483, 2-[(2S)-4-[7-(8-chloro-1-naphthyl)-2-[[(2S)-1-methylpyrrolidin-2-yl]methoxy]-6,8-dihydro-5H-pyrido[3,4-d]pyrimidin-4-yl]-1-(4-hydroxybut-2-ynoyl)piperazin-2-yl]acetonitrile]: 0.1 to 1000 nM. As for `C=CC(=O)N1CCN(c2nc(OC[C@@H]3C[C@@H](O)CN3C)nc3c2CCN(c2cccc4ccccc24)C3)CC1CC#N` (stereo partly drawn) [Example 218, 2-(1-acryloyl-4-(2-(((2S,4R)-4-hydroxy-1-methylpyrrolidin-2-yl)methoxy)-7-(naphthalen-1-yl)-5,6,7,8-tetrahydropyrido[3,4-d]pyrimidin-4-yl)piperazin-2-yl)acetonitrile], the IC50 was in the range of 0.1 to 1000 nM. The same measure for `C=CC(=O)N1CCN(c2nc(OCCN3CCCC3)nc3c2CCN(c2cc(O)cc4ccccc24)C3)CC1` [Example 85, 1-(4-(7-(3-hydroxynaphthalen-1-yl)-2-(2-(pyrrolidin-1-yl)ethoxy)-5,6,7,8-tetrahydropyrido[3,4-d]pyrimidin-4-yl)piperazin-1-yl)prop-2-en-1-one]: above 1000 nM; for `C=CC(=O)N1CCN(c2nc(O[C@@H]3CCCN(C)C3)nc3c2CCN(c2cc(O)cc4ccccc24)C3)CC1` [Example 67, (R)-1-(4-(7-(3-hydroxynaphthalen-1-yl)-2-((1-methylpiperidin-3-yl)oxy)-5,6,7,8-tetrahydropyrido[3,4-d]pyrimidin-4-yl)piperazin-1-yl)prop-2-en-1-one]: 0.1 to 1000 nM; for `C=CC(=O)N1CCN(c2nc(OC[C@]3(C)CCCN3C)nc3c2CCN(c2cccc4ccccc24)C3)CC1CC#N` (stereo partly drawn) [Example 395, 2-(1-acryloyl-4-(2-(((S)-1,2-dimethylpyrrolidin-2-yl)methoxy)-7-(naphthalen-1-yl)-5,6,7,8-tetrahydropyrido[3,4-d]pyrimidin-4-yl)piperazin-2-yl)acetonitrile]: 0.1 to 1000 nM.

As for `C=CC(=O)N1CCN(c2nc(OCCCN3C[C@H]4C[C@@H]3CO4)nc3c2CCN(c2cc(O)cc4ccccc24)C3)CC1` [Example 185, 1-(4-(2-(3-((1R,4R)-2-oxa-5-azabicyclo[2.2.1]heptan-5-yl)propoxy)-7-(3-hydroxynaphthalen-1-yl)-5,6,7,8-tetrahydropyrido[3,4-d]pyrimidin-4-yl)piperazin-1-yl)prop-2-en-1-one], the IC50 was in the range of 0.1 to 1000 nM. For the compound `C=CC(=O)N1CCN(c2nc(OCCC(=O)N(C)C)nc3c2CCN(c2cccc4cccc(C)c24)C3)C[C@@H]1CC#N` [Example 371, (S)-3-((4-(4-acryloyl-3-(cyanomethyl)piperazin-1-yl)-7-(8-methylnaphthalen-1-yl)-5,6,7,8-tetrahydropyrido[3,4-d]pyrimidin-2-yl)oxy)-N,N-dimethylpropanamide], the IC50 fell in the range of 0.1 to 1000 nM. For `C=CC(=O)N1CCN(c2nc(OC[C@@H]3CCCN3C)nc3c2CCN(c2cccc4cccc(CC)c24)C3)C[C@@H]1CC#N` [Example 360, 2-[(2S)-4-[7-(8-ethyl-1-naphthyl)-2-[[(2S)-1-methylpyrrolidin-2-yl]methoxy]-6,8-dihydro-5H-pyrido[3,4-d]pyrimidin-4-yl]-1-prop-2-enoyl-piperazin-2-yl]acetonitrile] the value was 0.1 to 1000 nM; for `C=CC(=O)N1CCN(c2nc(OC[C@@H]3CCCN3C)nc3c2CCN(c2cccc(Cl)c2C(F)(F)F)C3)C[C@@H]1CC#N` [Example 428, 2-((S)-1-acryloyl-4-(7-(3-chloro-2-(trifluoromethyl)phenyl)-2-(((S)-1-methylpyrrolidin-2-yl)methoxy)-5,6,7,8-tetrahydropyrido[3,4-d]pyrimidin-4-yl)piperazin-2-yl)acetonitrile], 0.1 to 1000 nM. For `C=CC(=O)N1CCN(c2nc(OCCN3CCC(C#N)CC3)nc3c2CCN(c2cc(O)cc4ccccc24)C3)CC1` [Example 81, 1-(2-((4-(4-acryloylpiperazin-1-yl)-7-(3-hydroxynaphthalen-1-yl)-5,6,7,8-tetrahydropyrido[3,4-d]pyrimidin-2-yl)oxy)ethyl)piperidine-4-carbonitrile] the value was above 1000 nM; for `C=CC(=O)N1CCN(c2nc(OCCCN3CCOCC3)nc3c2CCN(c2cc(O)ccc2OC(C)C)C3)CC1` [Example 96, 1-(4-(7-(5-hydroxy-2-isopropoxyphenyl)-2-(3-morpholinopropoxy)-5,6,7,8-tetrahydropyrido[3,4-d]pyrimidin-4-yl)piperazin-1-yl)prop-2-en-1-one], above 1000 nM; for `C=CC(=O)N1CCN(c2nc(OC[C@@H]3CCCN3C)nc3c2CCN(c2cccc4ccccc24)C3)[C@@H](C#N)C1` [Example 465, (R)-4-acryloyl-1-(2-(((S)-1-methylpyrrolidin-2-yl)methoxy)-7-(naphthalen-1-yl)-5,6,7,8-tetrahydropyrido[3,4-d]pyrimidin-4-yl)piperazine-2-carbonitrile], above 1000 nM. The same measure for `C=CC(=O)N1CCN(c2nc(OC[C@@H]3CCCN3C)nc3c2CCN(c2cccc(OC)c2C(F)(F)F)C3)C[C@@H]1CC#N` [Example 330, 2-[(2S)-4-[7-[3-methoxy-2-(trifluoromethyl)phenyl]-2-[[(2S)-1-methylpyrrolidin-2-yl]methoxy]-6,8-dihydro-5H-pyrido[3,4-d]pyrimidin-4-yl]-1-prop-2-enoyl-piperazin-2-yl]acetonitrile]: 0.1 to 1000 nM; for `C=CC(=O)N1CCN(c2nc(OC[C@@H]3CCCN3C)nc3c2CCN(c2cccc4ccc(OC)cc24)C3)CC1CC#N` (stereo partly drawn) [Example 255, 2-[4-[7-(7-methoxy-1-naphthyl)-2-[[(2S)-1-methylpyrrolidin-2-yl]methoxy]-6,8-dihydro-5H-pyrido[3,4-d]pyrimidin-4-yl]-1-prop-2-enoyl-piperazin-2-yl]acetonitrile]: above 1000 nM. With `C=CC(=O)N1CCN(c2nc(OC[C@@H]3CCCN3CC)nc3c2CCN(c2cccc4ccccc24)C3)CC1CC#N` (stereo partly drawn) [Example 233, 2-(1-acryloyl-4-(2-(((S)-1-ethylpyrrolidin-2-yl)methoxy)-7-(naphthalen-1-yl)-5,6,7,8-tetrahydropyrido[3,4-d]pyrimidin-4-yl)piperazin-2-yl)acetonitrile], the IC50 lay within 0.1 to 1000 nM.
